Source: ChEMBL document CHEMBL4507310, “Data for DCP probe A-1211212” (2021)

Legend:
[1] = molecular target: Cyclin-dependent kinase 9 (Homo sapiens) (UniProt P50750); settings: Compound concentration 1000.0 nM
[2] = molecular target: Tyrosine-protein kinase Mer (Homo sapiens) (UniProt Q12866); settings: Compound concentration 1000.0 nM
[3] = molecular target: Mitogen-activated protein kinase kinase kinase 20 (Homo sapiens) (UniProt Q9NYL2); settings: Compound concentration 1000.0 nM
[4] = molecular target: Dual specificity testis-specific protein kinase 1 (Homo sapiens) (UniProt Q15569); settings: Compound concentration 1000.0 nM
[5] = molecular target: Mitogen-activated protein kinase kinase kinase kinase 4 (Homo sapiens) (UniProt O95819); settings: Compound concentration 1000.0 nM
[6] = molecular target: Cyclin-dependent kinase 14 (Homo sapiens) (UniProt O94921); settings: Compound concentration 1000.0 nM
[7] = molecular target: Dual specificity protein kinase CLK4 (Homo sapiens) (UniProt Q9HAZ1); settings: Compound concentration 1000.0 nM
[8] = molecular target: T1, Alpha-2B adrenergic receptor (Homo sapiens) (UniProt P18089); test: Alpha2B (h) Eurofins-Cerep binding assay; parameters: ligand concentration 2.5 nM; settings: filed as antagonist, Compound concentration 10.0 uM
T1 sequence (whole entry): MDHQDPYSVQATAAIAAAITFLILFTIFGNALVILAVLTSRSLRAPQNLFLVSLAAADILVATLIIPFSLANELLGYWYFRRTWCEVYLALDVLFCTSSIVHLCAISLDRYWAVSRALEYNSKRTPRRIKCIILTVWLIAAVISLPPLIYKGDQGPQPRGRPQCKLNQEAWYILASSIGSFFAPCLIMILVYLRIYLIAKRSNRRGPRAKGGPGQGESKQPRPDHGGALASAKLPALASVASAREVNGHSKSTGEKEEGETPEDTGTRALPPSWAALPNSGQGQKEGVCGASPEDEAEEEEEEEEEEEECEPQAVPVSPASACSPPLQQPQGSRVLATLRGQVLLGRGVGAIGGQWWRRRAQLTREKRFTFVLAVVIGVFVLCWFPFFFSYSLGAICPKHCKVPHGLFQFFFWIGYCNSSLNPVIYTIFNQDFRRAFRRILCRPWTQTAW

[9] = test system: Epidermal growth factor receptor (Homo sapiens), P00533 [UNDEFINED MUTATION]; settings: Compound concentration 1000.0 nM
[10] = test system: Receptor-type tyrosine-protein kinase FLT3 (Homo sapiens), P36888 [D835H]; settings: Compound concentration 1000.0 nM
[11] = molecular target: Glutamate NMDA receptor (Rattus norvegicus) (UniProt P35439+Q00959+Q00960+Q00961+Q62645+Q8VHN2+Q9R1M7); test: PCP Eurofins-Cerep binding assay; type: protein-complex assay; parameters: ligand concentration 10 nM; settings: filed as antagonist, Compound concentration 10.0 uM
[12] = molecular target: Mitogen-activated protein kinase kinase kinase 3 (Homo sapiens) (UniProt Q99759); settings: Compound concentration 1000.0 nM
[13] = molecular target: Membrane-associated tyrosine- and threonine-specific cdc2-inhibitory kinase (Homo sapiens) (UniProt Q99640); settings: Compound concentration 1000.0 nM
[14] = molecular target: MAP kinase-activated protein kinase 2 (Homo sapiens) (UniProt P49137); settings: Compound concentration 1000.0 nM
[15] = molecular target: Mitogen-activated protein kinase kinase kinase 11 (Homo sapiens) (UniProt Q16584); settings: Compound concentration 1000.0 nM
[16] = molecular target: Mitogen-activated protein kinase kinase kinase kinase 1 (Homo sapiens) (UniProt Q92918); settings: Compound concentration 1000.0 nM
[17] = molecular target: Serine/threonine-protein kinase BRSK2 (Homo sapiens) (UniProt Q8IWQ3); settings: Compound concentration 1000.0 nM
[18] = molecular target: Ephrin type-A receptor 6 (Homo sapiens) (UniProt Q9UF33); settings: Compound concentration 1000.0 nM
[19] = molecular target: Histamine H1 receptor (Homo sapiens) (UniProt P35367); settings: Compound concentration 10.0 uM
[20] = molecular target: Mitogen-activated protein kinase 11 (Homo sapiens) (UniProt Q15759); settings: Compound concentration 1000.0 nM
[21] = molecular target: Ribosomal protein S6 kinase alpha-6 (Homo sapiens) (UniProt Q9UK32); settings: Compound concentration 1000.0 nM
[22] = test system: Tyrosine-protein kinase ABL1 (Homo sapiens), P00519 [H396P]; settings: Compound concentration 1000.0 nM
[23] = molecular target: Serine/threonine-protein kinase STK11 (Homo sapiens) (UniProt Q15831); settings: Compound concentration 1000.0 nM
[24] = molecular target: Myosin light chain kinase, smooth muscle (Homo sapiens) (UniProt Q15746); settings: Compound concentration 1000.0 nM
[25] = test system: Receptor-type tyrosine-protein kinase FLT3 (Homo sapiens), P36888 [D835V]; settings: Compound concentration 1000.0 nM
[26] = molecular target: Serine/threonine-protein kinase TBK1 (Homo sapiens) (UniProt Q9UHD2); settings: Compound concentration 1000.0 nM
[27] = molecular target: Sulfonylurea receptors; K-ATP channels (Rattus norvegicus) (UniProt Q63563+P70673+Q63664+Q09429); test: KATP channel Eurofins-Cerep binding assay; type: protein-complex assay; parameters: ligand concentration 0.1 nM; settings: filed as antagonist, Compound concentration 10.0 uM
[28] = molecular target: Serine/threonine-protein kinase PLK1 (Homo sapiens) (UniProt P53350); settings: Compound concentration 1000.0 nM
[29] = molecular target: Histamine H2 receptor (Homo sapiens) (UniProt P25021); test: H2 (h) Eurofins-Cerep binding assay; parameters: ligand concentration 0.075 nM; settings: filed as antagonist, Compound concentration 10.0 uM
[30] = molecular target: Dual specificity protein kinase TTK (Homo sapiens) (UniProt P33981); settings: Compound concentration 1000.0 nM
[31] = molecular target: Insulin receptor-related protein (Homo sapiens) (UniProt P14616); settings: Compound concentration 1000.0 nM
[32] = molecular target: Myotonin-protein kinase (Homo sapiens) (UniProt Q09013); settings: Compound concentration 1000.0 nM
[33] = molecular target: Phosphatidylinositol 4,5-bisphosphate 3-kinase catalytic subunit gamma isoform (Homo sapiens) (UniProt P48736); settings: Compound concentration 1000.0 nM
[34] = molecular target: Mitogen-activated protein kinase 8 (Homo sapiens) (UniProt P45983); settings: Compound concentration 1000.0 nM
[35] = test system: Mast/stem cell growth factor receptor Kit (Homo sapiens), P10721 [V559D,T670I]; settings: Compound concentration 1000.0 nM
[36] = molecular target: Serine/threonine-protein kinase TNNI3K (Homo sapiens) (UniProt Q59H18); settings: Compound concentration 1000.0 nM
[37] = molecular target: G protein-coupled receptor kinase 4 (Homo sapiens) (UniProt P32298); settings: Compound concentration 1000.0 nM
[38] = molecular target: Cyclin-dependent kinase 2 homolog (Plasmodium falciparum (isolate 3D7)) (UniProt P61075); settings: Compound concentration 1000.0 nM
Chain of Cyclin-dependent kinase 2 homolog (Plasmodium falciparum (isolate 3D7)) (P61075 whole entry): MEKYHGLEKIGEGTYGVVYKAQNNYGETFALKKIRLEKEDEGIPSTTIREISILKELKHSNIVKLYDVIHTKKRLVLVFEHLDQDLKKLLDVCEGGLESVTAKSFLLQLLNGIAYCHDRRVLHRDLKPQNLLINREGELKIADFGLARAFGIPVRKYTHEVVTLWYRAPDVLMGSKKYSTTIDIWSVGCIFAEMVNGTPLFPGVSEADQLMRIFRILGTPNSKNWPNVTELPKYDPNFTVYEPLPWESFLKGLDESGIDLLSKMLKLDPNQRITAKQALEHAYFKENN

Chain of Histamine H2 receptor (Homo sapiens) (P25021 whole entry): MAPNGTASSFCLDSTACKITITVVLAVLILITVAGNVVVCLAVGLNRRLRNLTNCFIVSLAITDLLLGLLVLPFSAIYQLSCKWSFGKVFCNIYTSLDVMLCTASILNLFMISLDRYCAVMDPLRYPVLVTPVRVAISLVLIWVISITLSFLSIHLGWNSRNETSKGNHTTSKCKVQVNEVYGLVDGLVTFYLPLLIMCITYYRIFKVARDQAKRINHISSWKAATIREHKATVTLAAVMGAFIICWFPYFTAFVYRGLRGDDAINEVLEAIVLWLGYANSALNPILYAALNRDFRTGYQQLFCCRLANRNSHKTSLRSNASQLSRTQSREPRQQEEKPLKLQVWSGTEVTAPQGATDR
Chain of Mitogen-activated protein kinase kinase kinase 3 (Homo sapiens) (Q99759 whole entry): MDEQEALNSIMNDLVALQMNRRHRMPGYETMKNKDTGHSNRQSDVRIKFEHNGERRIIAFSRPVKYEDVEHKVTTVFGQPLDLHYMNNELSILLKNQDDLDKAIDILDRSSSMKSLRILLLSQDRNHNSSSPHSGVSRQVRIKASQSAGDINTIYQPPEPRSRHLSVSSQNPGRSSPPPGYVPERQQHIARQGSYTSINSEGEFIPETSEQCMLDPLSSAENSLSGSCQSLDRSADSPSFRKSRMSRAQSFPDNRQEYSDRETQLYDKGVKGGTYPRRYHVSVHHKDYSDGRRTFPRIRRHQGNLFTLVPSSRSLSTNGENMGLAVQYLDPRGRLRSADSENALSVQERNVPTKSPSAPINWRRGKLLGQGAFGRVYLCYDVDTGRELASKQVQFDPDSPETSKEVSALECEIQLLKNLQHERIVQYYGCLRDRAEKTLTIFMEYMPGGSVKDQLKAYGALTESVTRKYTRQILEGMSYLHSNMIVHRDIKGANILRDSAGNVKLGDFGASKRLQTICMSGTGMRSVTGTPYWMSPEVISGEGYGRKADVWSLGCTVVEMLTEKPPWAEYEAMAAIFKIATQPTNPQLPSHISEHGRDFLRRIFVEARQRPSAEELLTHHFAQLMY
Chain of Insulin receptor-related protein (Homo sapiens) (P14616 27-742 limits assumed): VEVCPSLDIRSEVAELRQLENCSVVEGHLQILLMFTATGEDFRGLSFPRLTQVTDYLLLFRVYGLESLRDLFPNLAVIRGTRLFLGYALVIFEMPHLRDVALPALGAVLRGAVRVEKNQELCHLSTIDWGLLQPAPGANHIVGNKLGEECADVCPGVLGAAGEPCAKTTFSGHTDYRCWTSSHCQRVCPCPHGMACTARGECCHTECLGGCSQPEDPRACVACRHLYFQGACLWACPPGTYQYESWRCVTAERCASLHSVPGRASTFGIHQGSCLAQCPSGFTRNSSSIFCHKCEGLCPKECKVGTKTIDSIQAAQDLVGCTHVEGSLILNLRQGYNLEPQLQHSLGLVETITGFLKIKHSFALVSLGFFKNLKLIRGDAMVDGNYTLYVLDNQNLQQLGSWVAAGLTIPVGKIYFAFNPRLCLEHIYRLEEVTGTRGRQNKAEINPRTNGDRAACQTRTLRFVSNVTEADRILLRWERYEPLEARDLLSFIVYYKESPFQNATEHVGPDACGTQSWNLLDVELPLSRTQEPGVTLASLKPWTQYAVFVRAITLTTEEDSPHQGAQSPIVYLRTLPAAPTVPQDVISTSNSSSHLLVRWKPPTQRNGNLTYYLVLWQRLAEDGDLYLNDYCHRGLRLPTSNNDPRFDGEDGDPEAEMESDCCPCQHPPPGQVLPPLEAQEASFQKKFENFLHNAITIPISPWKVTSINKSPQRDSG
Chain of Insulin receptor-related protein (Homo sapiens) (P14616 747-1297 limits assumed): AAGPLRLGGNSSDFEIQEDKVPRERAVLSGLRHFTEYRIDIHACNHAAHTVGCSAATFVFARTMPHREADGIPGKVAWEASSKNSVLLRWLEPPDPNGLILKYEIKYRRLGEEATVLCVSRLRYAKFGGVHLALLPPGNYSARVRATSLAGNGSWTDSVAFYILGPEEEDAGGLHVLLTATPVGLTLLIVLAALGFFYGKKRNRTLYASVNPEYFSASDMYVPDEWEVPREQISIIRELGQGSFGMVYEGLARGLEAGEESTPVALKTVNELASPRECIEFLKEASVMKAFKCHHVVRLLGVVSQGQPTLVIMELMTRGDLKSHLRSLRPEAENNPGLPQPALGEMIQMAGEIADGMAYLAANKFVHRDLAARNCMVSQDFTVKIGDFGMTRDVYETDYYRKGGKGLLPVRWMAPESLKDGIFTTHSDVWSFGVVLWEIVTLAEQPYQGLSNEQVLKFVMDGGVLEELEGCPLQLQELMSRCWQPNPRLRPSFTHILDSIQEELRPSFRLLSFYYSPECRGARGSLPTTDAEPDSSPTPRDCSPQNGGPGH
Chain of Dual specificity protein kinase TTK (Homo sapiens) (P33981 whole entry): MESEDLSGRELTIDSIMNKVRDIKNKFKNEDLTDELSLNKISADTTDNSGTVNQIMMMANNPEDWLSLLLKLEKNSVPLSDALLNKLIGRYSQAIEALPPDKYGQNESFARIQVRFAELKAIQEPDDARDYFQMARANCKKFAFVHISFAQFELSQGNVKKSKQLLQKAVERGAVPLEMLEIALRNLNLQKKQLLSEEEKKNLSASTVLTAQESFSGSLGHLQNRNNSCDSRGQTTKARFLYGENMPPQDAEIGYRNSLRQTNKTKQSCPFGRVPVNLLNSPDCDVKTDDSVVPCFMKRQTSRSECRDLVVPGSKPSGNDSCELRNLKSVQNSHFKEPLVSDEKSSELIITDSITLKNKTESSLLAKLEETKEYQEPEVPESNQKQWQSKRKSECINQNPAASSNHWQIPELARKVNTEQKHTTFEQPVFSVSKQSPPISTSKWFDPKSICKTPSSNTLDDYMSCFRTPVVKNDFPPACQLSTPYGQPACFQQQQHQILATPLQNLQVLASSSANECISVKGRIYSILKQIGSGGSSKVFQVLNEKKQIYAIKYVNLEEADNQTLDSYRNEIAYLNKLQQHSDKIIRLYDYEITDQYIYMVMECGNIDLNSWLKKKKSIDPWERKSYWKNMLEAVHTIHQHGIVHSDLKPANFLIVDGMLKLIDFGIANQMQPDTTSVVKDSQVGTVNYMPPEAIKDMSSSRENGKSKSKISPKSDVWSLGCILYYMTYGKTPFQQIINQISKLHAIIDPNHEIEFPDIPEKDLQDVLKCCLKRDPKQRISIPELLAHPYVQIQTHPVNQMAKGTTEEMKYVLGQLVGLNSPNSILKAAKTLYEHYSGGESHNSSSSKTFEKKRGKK
Chain of Epidermal growth factor receptor (Homo sapiens), P00533 [UNDEFINED MUTATION] (P00533 whole entry, looked up, stated change not applied): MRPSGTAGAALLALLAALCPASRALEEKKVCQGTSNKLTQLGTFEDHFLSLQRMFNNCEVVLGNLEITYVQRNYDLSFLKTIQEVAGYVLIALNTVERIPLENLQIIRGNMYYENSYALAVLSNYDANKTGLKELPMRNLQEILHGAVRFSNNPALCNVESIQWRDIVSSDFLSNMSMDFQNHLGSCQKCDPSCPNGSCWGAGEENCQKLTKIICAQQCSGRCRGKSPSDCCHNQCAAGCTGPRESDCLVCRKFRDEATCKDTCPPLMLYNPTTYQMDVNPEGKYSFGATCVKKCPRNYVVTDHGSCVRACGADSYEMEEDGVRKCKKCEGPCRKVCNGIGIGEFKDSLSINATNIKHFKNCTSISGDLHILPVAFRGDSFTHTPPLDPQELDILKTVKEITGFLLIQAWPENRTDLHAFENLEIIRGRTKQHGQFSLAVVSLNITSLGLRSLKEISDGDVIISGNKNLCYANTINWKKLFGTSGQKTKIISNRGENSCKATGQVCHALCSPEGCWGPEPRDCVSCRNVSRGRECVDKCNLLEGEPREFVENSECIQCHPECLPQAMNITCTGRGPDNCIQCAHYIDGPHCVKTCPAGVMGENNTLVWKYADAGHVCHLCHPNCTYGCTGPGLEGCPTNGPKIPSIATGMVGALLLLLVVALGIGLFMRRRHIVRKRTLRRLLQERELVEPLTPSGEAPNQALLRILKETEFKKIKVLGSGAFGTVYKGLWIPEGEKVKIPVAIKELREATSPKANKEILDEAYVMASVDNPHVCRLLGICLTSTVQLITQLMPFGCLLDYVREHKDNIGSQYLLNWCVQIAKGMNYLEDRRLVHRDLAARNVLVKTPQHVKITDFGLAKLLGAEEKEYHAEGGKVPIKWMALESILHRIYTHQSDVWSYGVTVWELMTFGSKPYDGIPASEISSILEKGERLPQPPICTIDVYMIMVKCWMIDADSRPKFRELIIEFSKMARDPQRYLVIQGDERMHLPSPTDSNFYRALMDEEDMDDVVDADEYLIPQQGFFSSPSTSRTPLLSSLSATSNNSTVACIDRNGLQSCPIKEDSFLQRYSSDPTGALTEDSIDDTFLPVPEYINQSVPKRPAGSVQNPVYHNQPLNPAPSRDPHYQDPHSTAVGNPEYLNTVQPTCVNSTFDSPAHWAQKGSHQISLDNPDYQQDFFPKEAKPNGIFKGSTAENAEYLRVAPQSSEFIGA
Chain of MAP kinase-activated protein kinase 2 (Homo sapiens) (P49137 whole entry, looked up): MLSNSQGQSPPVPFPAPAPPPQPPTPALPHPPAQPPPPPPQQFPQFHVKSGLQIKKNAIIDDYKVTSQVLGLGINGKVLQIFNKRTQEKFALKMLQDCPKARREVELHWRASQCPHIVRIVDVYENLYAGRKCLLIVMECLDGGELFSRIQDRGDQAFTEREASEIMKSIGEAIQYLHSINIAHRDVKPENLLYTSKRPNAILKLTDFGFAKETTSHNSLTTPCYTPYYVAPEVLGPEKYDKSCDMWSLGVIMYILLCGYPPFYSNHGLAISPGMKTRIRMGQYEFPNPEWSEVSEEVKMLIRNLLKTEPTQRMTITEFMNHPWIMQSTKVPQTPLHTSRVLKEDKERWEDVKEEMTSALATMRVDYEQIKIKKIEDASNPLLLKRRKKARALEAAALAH

| Compound | residual activity [1] | residual activity [2] | residual activity [3] | residual activity [4] | residual activity [5] | residual activity [6] | residual activity [7] | % Inhibition of Control Specific Binding (Mean n=2) [8] | residual activity [9] | residual activity [10] | % Inhibition of Control Specific Binding (Mean n=2) [11] | residual activity [12] | residual activity [13] | residual activity [14] | residual activity [15] | residual activity [16] | residual activity [17] | residual activity [18] | inhibition [19] | residual activity [20] | also measured |
| --- | --- | --- | --- | --- | --- | --- | --- | --- | --- | --- | --- | --- | --- | --- | --- | --- | --- | --- | --- | --- | --- |
| O=C(NS(=O)(=O)c1ccc(NCC2CCOCC2)c([N+](=O)[O-])c1)c1ccc(N2CCN(Cc3ccc(C(F)(F)F)cc3-c3ccc(Cl)cc3)CC2)cc1Oc1cnc2[nH]ccc2c1 [A-1210227] | 100% | 100% | 100% | 100% | 95% | 100% | 100% | -11.6% | 86% | 100% | 19.2% | 82% | 90% | 81% | 91% | 98% | 87% | 100% | -9.16% | 78% | residual activity [21]: 100%; residual activity [22]: 92%; residual activity [23]: 100%; residual activity [24]: 65%; residual activity [25]: 100%; residual activity [26]: 74%; % Inhibition of Control Specific Binding (Mean n=2) [27]: 9.9%; residual activity [28]: 90%; % Inhibition of Control Specific Binding (Mean n=2) [29]: -948%; residual activity [30]: 100%; residual activity [31]: 98%; residual activity [32]: 100%; residual activity [33]: 86%; residual activity [34]: 78%; residual activity [35]: 100%; residual activity [36]: 95%; residual activity [37]: 100%; residual activity [38]: 100% |
| CO[C@H]1CC[C@H](CNc2ccc(S(=O)(=O)NC(=O)c3ccc(N4CCN(CC5=C(c6ccc(Cl)cc6)CC(C)(C)CC5)CC4)cc3Oc3cnc4[nH]ccc4c3)cc2[N+](=O)[O-])CC1 [A-1211212] | 91% | 85% | 100% | 100% | 100% | 100% | 58% | -20.1% | 58% | 78% | 1.9% | 83% | 100% | 93% | 74% | 69% | 78% | 99% | 34.2% | 60% | residual activity [21]: 67%; residual activity [22]: 94%; residual activity [23]: 59%; residual activity [24]: 50%; residual activity [25]: 100%; residual activity [26]: 60%; % Inhibition of Control Specific Binding (Mean n=2) [27]: 9.7%; residual activity [28]: 83%; % Inhibition of Control Specific Binding (Mean n=2) [29]: -22%; residual activity [30]: 82%; residual activity [31]: 100%; residual activity [32]: 91%; residual activity [33]: 86%; residual activity [34]: 82%; residual activity [35]: 88%; residual activity [36]: 85%; residual activity [37]: 100%; residual activity [38]: 100% |
